# Values quoted from earlier work in US6887863B2, “Hydrazide and alkoxyamide angiogenesis inhibitors” (Abbott Laboratories, priority 2000, dated 2005).
# Biological target: type 2-methionine aminopeptidase (MetAP2) (Homo sapiens, UniProt P50579)
# Conditions: reported in Proc. Natl. Acad. Sci. USA 94: 6099-6103 (1997) and Chemistry and Biology 4(6): 461-471 (1997)
# type 2-methionine aminopeptidase (MetAP2), sequence (P50579 whole entry, species assumed): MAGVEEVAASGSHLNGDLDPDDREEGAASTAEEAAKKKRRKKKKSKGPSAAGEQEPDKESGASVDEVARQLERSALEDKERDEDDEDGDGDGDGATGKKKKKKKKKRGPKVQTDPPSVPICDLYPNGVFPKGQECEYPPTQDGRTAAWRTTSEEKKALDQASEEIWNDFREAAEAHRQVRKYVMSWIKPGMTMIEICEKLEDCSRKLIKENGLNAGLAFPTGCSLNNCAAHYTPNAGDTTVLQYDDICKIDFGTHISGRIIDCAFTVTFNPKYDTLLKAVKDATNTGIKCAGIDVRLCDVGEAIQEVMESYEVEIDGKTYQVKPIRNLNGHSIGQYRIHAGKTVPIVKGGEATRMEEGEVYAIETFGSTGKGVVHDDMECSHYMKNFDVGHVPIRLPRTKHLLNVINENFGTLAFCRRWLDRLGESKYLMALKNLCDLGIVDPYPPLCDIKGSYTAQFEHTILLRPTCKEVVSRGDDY
structure (smiles),measurement,value
CO[C@@H]1[C@H](OC(=O)NC(=O)CCl)CC[C@]2(CO2)[C@H]1[C@@]1(C)O[C@@H]1CC=C(C)C [AGM-1470],inactivation of MetAP2,covalently inactivate
